Measured values published in PubChem BioAssay AID1259407 (Chemical Carcinogenesis Research Information System (CCRIS), 2018).
Activity calls are given as the source filed them. The rule behind the calls is not given here.

System: CCRIS mutagenicity, Ames/micronucleus/aberration tests
Test: CCRIS mutagenicity studies
[1] = Test System: AMES SALMONELLA TYPHIMURIUM, Strain/Indicator: TA98, Metabolic Activation: NONE, Method: STANDARD PLATE
[2] = Test System: AMES SALMONELLA TYPHIMURIUM, Strain/Indicator: TA100, Metabolic Activation: NONE, Method: STANDARD PLATE
[3] = Test System: AMES SALMONELLA TYPHIMURIUM, Strain/Indicator: TA100, Metabolic Activation: RAT, LIVER, S-9, AROCLOR 1254, Method: STANDARD PLATE
[4] = Test System: AMES SALMONELLA TYPHIMURIUM, Strain/Indicator: TA98, Metabolic Activation: NONE, Method: PREINCUBATION
[5] = Test System: AMES SALMONELLA TYPHIMURIUM, Strain/Indicator: TA100, Metabolic Activation: NONE, Method: PREINCUBATION

Nc1ccc([N+](=O)[O-])c(O)c1
mutagenic call [1]: inactive; negative | mutagenic call [2]: inactive; negative | mutagenic call [3]: inactive; negative | mutagenic call (Test System: AMES SALMONELLA TYPHIMURIUM, Strain/Indicator: TA1535, Metabolic Activation: NONE, Method: STANDARD PLATE): inactive; negative | mutagenic call (Test System: AMES SALMONELLA TYPHIMURIUM, Strain/Indicator: TA1535, Metabolic Activation: RAT, LIVER, S-9, AROCLOR 1254, Method: STANDARD PLATE): inactive; negative | mutagenic call (Test System: AMES SALMONELLA TYPHIMURIUM, Strain/Indicator: TA1537, Metabolic Activation: NONE, Method: STANDARD PLATE): inactive; negative | mutagenic call (Test System: AMES SALMONELLA TYPHIMURIUM, Strain/Indicator: TA1537, Metabolic Activation: RAT, LIVER, S-9, AROCLOR 1254, Method: STANDARD PLATE): inactive; negative | mutagenic call (Test System: AMES SALMONELLA TYPHIMURIUM, Strain/Indicator: TA1538, Metabolic Activation: NONE, Method: STANDARD PLATE): inactive; negative

ClCC1C(CCl)[C@@]2(Cl)C(Cl)=C(Cl)[C@]1(Cl)C2(Cl)Cl (some centres not stated)
mutagenic call (Test System: AMES SALMONELLA TYPHIMURIUM, Strain/Indicator: TA97, Metabolic Activation: NONE, Method: STANDARD PLATE): inactive; negative | mutagenic call (Test System: AMES SALMONELLA TYPHIMURIUM, Strain/Indicator: TA97, Metabolic Activation: RAT, LIVER, S-9, AROCLOR 1254, Method: STANDARD PLATE): inactive; negative | mutagenic call [1]: inactive; negative | mutagenic call (Test System: AMES SALMONELLA TYPHIMURIUM, Strain/Indicator: TA98, Metabolic Activation: RAT, LIVER, S-9, AROCLOR 1254, Method: STANDARD PLATE): inactive; negative | mutagenic call [2]: inactive; negative | mutagenic call [3]: inactive; negative | mutagenic call (Test System: AMES SALMONELLA TYPHIMURIUM, Strain/Indicator: TA102, Metabolic Activation: NONE, Method: STANDARD PLATE): inactive; negative | mutagenic call (Test System: AMES SALMONELLA TYPHIMURIUM, Strain/Indicator: TA102, Metabolic Activation: RAT, LIVER, S-9, AROCLOR 1254, Method: STANDARD PLATE): inactive; negative

O=C1c2ccccc2-c2c1ccc1ccc3ccccc3c21
mutagenic call [3]: inactive; negative

Nc1ccc(Oc2ccccc2)cc1
mutagenic call [4]: inactive; negative | mutagenic call (Test System: AMES SALMONELLA TYPHIMURIUM, Strain/Indicator: TA98, Metabolic Activation: RAT, BLADDER, S-9, PCB, Method: FLUCTUATION TEST): active; positive | mutagenic call (Test System: AMES SALMONELLA TYPHIMURIUM, Strain/Indicator: TA98, Metabolic Activation: RAT, LIVER, S-9, PCB, Method: PREINCUBATION): active; positive | mutagenic call (Test System: AMES SALMONELLA TYPHIMURIUM, Strain/Indicator: TA100, Metabolic Activation: GUINEA PIG, LIVER, S-9, KANECLOR 500, Method: STANDARD PLATE): active; positive | mutagenic call [5]: inactive; negative | mutagenic call (Test System: AMES SALMONELLA TYPHIMURIUM, Strain/Indicator: TA100, Metabolic Activation: RAT, BLADDER, S-9, PCB, Method: FLUCTUATION TEST): active; positive | mutagenic call (Test System: AMES SALMONELLA TYPHIMURIUM, Strain/Indicator: TA100, Metabolic Activation: RAT, LIVER, S-9, PCB, Method: PREINCUBATION): active; positive

C[CH2][Hg][S]c1ccccc1C(=O)O
mutagenic call (End Point: IN VITRO MICRONUCLEUS, Test System: HAMSTER V79 CELLS, Metabolic Activation: NONE): active; positive | mutagenic call (Test System: AMES SALMONELLA TYPHIMURIUM, Strain/Indicator: TA98, Metabolic Activation: HAMSTER, LIVER, S-9, AROCLOR 1254 (10%), Method: PREINCUBATION): inactive; negative | mutagenic call [4]: inactive; negative | mutagenic call (Test System: AMES SALMONELLA TYPHIMURIUM, Strain/Indicator: TA98, Metabolic Activation: RAT, LIVER, S-9, AROCLOR 1254 (10%), Method: PREINCUBATION): inactive; negative | mutagenic call (Test System: AMES SALMONELLA TYPHIMURIUM, Strain/Indicator: TA100, Metabolic Activation: HAMSTER, LIVER, S-9, AROCLOR 1254 (10%), Method: PREINCUBATION): inactive; negative | mutagenic call [5]: inactive; negative | mutagenic call (Test System: AMES SALMONELLA TYPHIMURIUM, Strain/Indicator: TA100, Metabolic Activation: RAT, LIVER, S-9, AROCLOR 1254 (10%), Method: PREINCUBATION): inactive; negative | mutagenic call (Test System: AMES SALMONELLA TYPHIMURIUM, Strain/Indicator: TA1535, Metabolic Activation: HAMSTER, LIVER, S-9, AROCLOR 1254 (10%), Method: PREINCUBATION): inactive; negative | mutagenic call (Test System: AMES SALMONELLA TYPHIMURIUM, Strain/Indicator: TA1535, Metabolic Activation: NONE, Method: PREINCUBATION): inactive; negative | mutagenic call (Test System: AMES SALMONELLA TYPHIMURIUM, Strain/Indicator: TA1535, Metabolic Activation: RAT, LIVER, S-9, AROCLOR 1254 (10%), Method: PREINCUBATION): inactive; negative | mutagenic call (Test System: AMES SALMONELLA TYPHIMURIUM, Strain/Indicator: TA1537, Metabolic Activation: HAMSTER, LIVER, S-9, AROCLOR 1254 (10%), Method: PREINCUBATION): inactive; negative | mutagenic call (Test System: AMES SALMONELLA TYPHIMURIUM, Strain/Indicator: TA1537, Metabolic Activation: NONE, Method: PREINCUBATION): inactive; negative | mutagenic call (Test System: AMES SALMONELLA TYPHIMURIUM, Strain/Indicator: TA1537, Metabolic Activation: RAT, LIVER, S-9, AROCLOR 1254 (10%), Method: PREINCUBATION): inactive; negative
